# Measurements from the supplement of paper PMC11208160.
# Test: recombinant UMI read abundance after kanamycin selection (control-corrected) (log10(CPM+1)); higher = more efficient recombination; extreme values may be limits of the assay; sequences stand for … in AGTGCAGAGAAAATCGGCCAGTTTTCTCTGCCTGCAGTCCGCATGCCGTGGGACCCCTTGGGTTCTAACCTGTTGCCTAGATTTATGCAGCGGACTGCCTTTCTCCCAAAGTGATAAACCGG…AGGTTGGTTTCACT; site = the 11-nt donor
# Procedure: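 Pooled E. coli donor-specificity screen for the IS621 bridge recombinase. Each library member carries a reprogrammed 11-nt donor and a full-length LE bridge RNA expressed in cis from the natural promoter, with a paired donor-binding loop (8-nt LDG + 4-nt RDG) and a target-binding loop fixed to T5. It is co-electroporated with a T5 target plasmid; recombinase is induced with 0.07 mM IPTG and recombinants are selected on kanamycin. UMIs are counted as CPM, averaged over two biological replicates and corrected by the unselected control. Molecule = full bridge RNA written as DNA, built from the T5 scaffold: LDG = donor specificity nt 1-8, RDG = reverse complement of nt 8-11.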
# 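Also: IS621 bridge recombinase in Escherichia coli cells against a fixed T5 target plasmid.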
row,Sequence,recombinant UMI read abundance (log10)
1,AAAAAGGCATGGACCGGTTTTCCCGGTAATCCGTATTTGCT (site AAAAAGGCTAG),1.88
2,AAAAAGGCATGGACCGGTTTTCCCGGTAATCCGTATTTGCT (site ACAAAGGCTAG),1.19
3,AAAAAGGCATGGACCGGTTTTCCCGGTAATCCGTATTTGCT (site AGAAAGGCTAG),0.722
4,AAAAAGGCATGGACCGGTTTTCCCGGTAATCCGTATTTGCT (site ATAAAGGCTAG),1.59
5,AAAACCACATGGACCGGTTTTCCCGGTAATCCGTATTTGCT (site AAAACCACTAG),1.82
6,AAAATATCATGGACCGGTTTTCCCGGTAATCCGTATTTGCA (site AAAATATCTTG),2.21
7,AAAATATCATGGACCGGTTTTCCCGGTAATCCGTATTTGCA (site ACAGTATCTTG),1.88
8,AAACGCACATGGACCGGTTTTCCCGGTAATCCGTATTTGGG (site AAACGCACTCC),0.0145
9,AAACGGGCATGGACCGGTTTTCCCGGTAATCCGTATTTGCG (site AAACGGGCTCG),0.661
10,AAACTGTCATGGACCGGTTTTCCCGGTAATCCGTATTTGCC (site AAACTGTCTGG),1.79
11,AAACTGTCATGGACCGGTTTTCCCGGTAATCCGTATTTGTT (site AAACTGTCTAA),1.97
12,AAACTTGCATGGACCGGTTTTCCCGGTAATCCGTATTTGGA (site AAACTTGCTTC),0.688
13,AAAGATCCATGGACCGGTTTTCCCGGTAATCCGTATTTGGC (site AAAGATCCTGC),0
14,AAAGCCCCATGGACCGGTTTTCCCGGTAATCCGTATTTGAA (site AAAGCCCCTTT),0.767
15,AAAGCCTCATGGACCGGTTTTCCCGGTAATCCGTATTTGAA (site AAAGCCTCTTT),2.63
16,AAAGCTCCATGGACCGGTTTTCCCGGTAATCCGTATTTGTA (site AAAGCTCCTTA),1.42
17,AAAGGCACATGGACCGGTTTTCCCGGTAATCCGTATTTGAA (site AAAGGCACTTT),0.56
18,AAAGGGACATGGACCGGTTTTCCCGGTAATCCGTATTTGAG (site AAAGGGACTCT),1.76
19,AAAGGGCCATGGACCGGTTTTCCCGGTAATCCGTATTTGAG (site AAAGGGCCTCT),0.0224
20,AAAGTAGCATGGACCGGTTTTCCCGGTAATCCGTATTTGCT (site AAAGTAGCTAG),1.94
21,AAAGTCACATGGACCGGTTTTCCCGGTAATCCGTATTTGGG (site AAAGTCACTCC),0.0214
22,AAAGTCACATGGACCGGTTTTCCCGGTAATCCGTATTTGGG (site CAAGTCACTCC),0.458
23,AAAGTCACATGGACCGGTTTTCCCGGTAATCCGTATTTGGG (site GAAGTCACTCC),0.00503
24,AAAGTCACATGGACCGGTTTTCCCGGTAATCCGTATTTGGG (site TAAGTCACTCC),0.158

row,Sequence,recombinant UMI read abundance (log10)
1,AAATACACATGGACCGGTTTTCCCGGTAATCCGTATTTGCT (site AAATACACTAG),2.41
2,AAATATGCATGGACCGGTTTTCCCGGTAATCCGTATTTGGA (site AAATATGCTTC),1.25
3,AAATATGCATGGACCGGTTTTCCCGGTAATCCGTATTTGGA (site AACTATGCTTC),1
4,AAATATGCATGGACCGGTTTTCCCGGTAATCCGTATTTGGA (site AAGTATGCTTC),1.23
5,AAATATGCATGGACCGGTTTTCCCGGTAATCCGTATTTGGA (site AATTATGCTTC),0.905
6,AAATCGACATGGACCGGTTTTCCCGGTAATCCGTATTTGGT (site AAATCGACTAC),0.133
7,AAATCGTCATGGACCGGTTTTCCCGGTAATCCGTATTTGTC (site AAATCGTCTGA),1.91
8,AAATGAGCATGGACCGGTTTTCCCGGTAATCCGTATTTGGG (site AAATGAGCTCC),0.252
9,AAATGAGCATGGACCGGTTTTCCCGGTAATCCGTATTTGGG (site CAATGAGCTCC),0.247
10,AAATGAGCATGGACCGGTTTTCCCGGTAATCCGTATTTGGG (site GAATGAGCTCC),0.00588
11,AAATGAGCATGGACCGGTTTTCCCGGTAATCCGTATTTGGG (site TAATGAGCTCC),0.46
12,AAATGATCATGGACCGGTTTTCCCGGTAATCCGTATTTGAG (site AAATGATCTCT),2.71
13,AAATGCACATGGACCGGTTTTCCCGGTAATCCGTATTTGGG (site AAATGCACTCC),0.0107
14,AAATGCTCATGGACCGGTTTTCCCGGTAATCCGTATTTGAA (site AAATGCTCTTT),1.66
15,AAATGCTCATGGACCGGTTTTCCCGGTAATCCGTATTTGAA (site CAATGCTCTTT),1.65
16,AAATGCTCATGGACCGGTTTTCCCGGTAATCCGTATTTGAA (site GAATGCTCTTT),0.961
17,AAATGCTCATGGACCGGTTTTCCCGGTAATCCGTATTTGAA (site TAATGCTCTTT),1.17
18,AAATGGCCATGGACCGGTTTTCCCGGTAATCCGTATTTGCA (site AAATGGCCTTG),0.00935
19,AAATGGCCATGGACCGGTTTTCCCGGTAATCCGTATTTGCA (site CAATGGCCTTG),0
20,AAATGGCCATGGACCGGTTTTCCCGGTAATCCGTATTTGCA (site GAATGGCCTTG),0
21,AAATGGCCATGGACCGGTTTTCCCGGTAATCCGTATTTGCA (site TAATGGCCTTG),0
22,AAATTTGCATGGACCGGTTTTCCCGGTAATCCGTATTTGGC (site AAATTTGCTGC),0
23,AACAAACCATGGACCGGTTTTCCCGGTAATCCGTATTTGGT (site AACAAACCTAC),0
24,AACAAACCATGGACCGGTTTTCCCGGTAATCCGTATTTGGT (site CACAAACCTAC),0

row,Sequence,recombinant UMI read abundance (log10)
1,AACAAACCATGGACCGGTTTTCCCGGTAATCCGTATTTGGT (site GACAAACCTAC),0
2,AACAAACCATGGACCGGTTTTCCCGGTAATCCGTATTTGGT (site TACAAACCTAC),0.337
3,AACACCCCATGGACCGGTTTTCCCGGTAATCCGTATTTGAG (site AACACCCCTCT),0.0941
4,AACACTGCATGGACCGGTTTTCCCGGTAATCCGTATTTGAG (site AACACTGCTCT),1.31
5,AACATACCATGGACCGGTTTTCCCGGTAATCCGTATTTGGA (site AACATACCTTC),0.0114
6,AACCACTCATGGACCGGTTTTCCCGGTAATCCGTATTTGCC (site AACCACTCTGG),3.01
7,AACCATCCATGGACCGGTTTTCCCGGTAATCCGTATTTGCC (site AACCATCCTGG),0.00555
8,AACCCGGCATGGACCGGTTTTCCCGGTAATCCGTATTTGGA (site AACCCGGCTTC),0.181
9,AACCCTCCATGGACCGGTTTTCCCGGTAATCCGTATTTGAT (site AACCATCCTAT),0.00728
10,AACCCTCCATGGACCGGTTTTCCCGGTAATCCGTATTTGAT (site AACCCTCCTAT),0.115
11,AACCCTCCATGGACCGGTTTTCCCGGTAATCCGTATTTGAT (site AACCGTCCTAT),0.015
12,AACCCTCCATGGACCGGTTTTCCCGGTAATCCGTATTTGAT (site AACCTTCCTAT),0.011
13,AACCGCCCATGGACCGGTTTTCCCGGTAATCCGTATTTGAA (site AACCGCCCTTT),0.156
14,AACCGTCCATGGACCGGTTTTCCCGGTAATCCGTATTTGTT (site AACCGTCCTAA),0.00892
15,AACCGTCCATGGACCGGTTTTCCCGGTAATCCGTATTTGTT (site AACCGTCCTAC),0.0168
16,AACCGTCCATGGACCGGTTTTCCCGGTAATCCGTATTTGTT (site AACCGTCCTAG),0.794
17,AACCGTCCATGGACCGGTTTTCCCGGTAATCCGTATTTGTT (site AACCGTCCTAT),0.0199
18,AACCTCTCATGGACCGGTTTTCCCGGTAATCCGTATTTGCC (site AACCTCTCTGG),2.62
19,AACGAGCCATGGACCGGTTTTCCCGGTAATCCGTATTTGGC (site AACGAGCCTGC),0
20,AACGATCCATGGACCGGTTTTCCCGGTAATCCGTATTTGGC (site AACGATCCTGC),1.07
21,AACGGCCCATGGACCGGTTTTCCCGGTAATCCGTATTTGTT (site AACGGCCCTAA),0
22,AACGGCCCATGGACCGGTTTTCCCGGTAATCCGTATTTGTT (site CACGGCCCTAA),0.071
23,AACGGCCCATGGACCGGTTTTCCCGGTAATCCGTATTTGTT (site GACGGCCCTAA),0.0173
24,AACGGCCCATGGACCGGTTTTCCCGGTAATCCGTATTTGTT (site TACGGCCCTAA),0.00583
